Patent US11566007B2, “Ras inhibitors” (Revolution Medicines, Inc., priority 2019, dated 2023)

Key:
[1] = tested on: NCI-H358 cells (K-Ras G12C); assay: Potency assay: pERK in NCI-H358 cells; assay type: cell-based, human; conditions: Homo sapiens, NCI-H358; H358 KRAS G12C; read-out: pERK EC50
Summary of the method: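 Inhibition of cellular pERK after a 4 h treatment, detected by AlphaLISA or In-Cell Western. IC50 from a four-parameter concentration-response fit.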

[2] = molecular target: NRAS Q61K (Homo sapiens (Human), UniProt P01111+P62937, Q61K); assay: Ras-Raf (BRAF RBD) disruption / FRET / MOA assay, NRAS Q61K; assay type: biochemical; conditions: NRAS Q61K; Ras-Raf disruption/FRET/MOA assay; read-out: IC50* NRAS Q61K FRET data
Sequence of NRAS Q61K (P01111 whole entry Q61K): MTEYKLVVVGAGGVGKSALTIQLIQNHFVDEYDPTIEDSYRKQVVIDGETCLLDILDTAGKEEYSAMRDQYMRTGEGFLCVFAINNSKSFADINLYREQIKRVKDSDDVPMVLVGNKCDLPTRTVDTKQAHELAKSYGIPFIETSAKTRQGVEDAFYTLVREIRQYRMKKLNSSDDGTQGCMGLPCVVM
Sequence of NRAS Q61K (P62937 whole entry): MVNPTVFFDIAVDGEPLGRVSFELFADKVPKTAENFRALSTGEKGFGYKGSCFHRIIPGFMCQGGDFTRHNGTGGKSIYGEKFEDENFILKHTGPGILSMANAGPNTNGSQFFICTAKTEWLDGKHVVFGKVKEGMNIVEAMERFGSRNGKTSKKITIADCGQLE
Summary of the method: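 Compounds (30 μM top final, 10-point 3-fold dilutions) incubated 3 h at 25° C with nucleotide-loaded Ras, cyclophilin A and BRAF RBD. Detection with 10 nM anti-His Eu-W1024 and 50 nM anti-GST allophycocyanin over another 1.5 h. Lowered TR-FRET ratio relative to DMSO wells gives IC50.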

With `C=CC(=O)N1CC[C@H](C(=O)N(C)[C@H](C(=O)N[C@H]2CN3CCC=C(C3)c3ccc4c(c3)c(c(-c3cccnc3[C@H](C)OC)n4CC)CC(C)(C)COC(=O)[C@@H]3CCCN(N3)C2=O)C(C)C)C1` (atropisomer, axis not shown) [Example A716, (3S)-1-acryloyl-N-((2S)-1-(((6^3S,4S)-1^1-ethyl-1^2-(2-((S)-1-methoxyethyl)pyridin-3-yl)-10,10-dimethyl-5,7-dioxo-2^1,2^2,2^3,2^6,6^1,6^2,6^3,6^4,6^5,6^6-decahydro-1^1H-8-oxa-1(5,3)-indola-6(1,3)-pyridazina-2(5,1)-pyridinacycloundecaphane-4-yl)amino)-3-methyl-1-oxobutan-2-yl)-N-methylpyrrolidine-3-carboxamide] the EC50 [1] was under 5 µM and the IC50 [2] was over 10 µM.

Work on `CCn1c(-c2cccnc2[C@H](C)OC)c2c3cc(ccc31)-c1nc(nn1C)C[C@H](NC(=O)[C@@H](COC1CN(C(=O)C#CC(C)(C)N(C)C)C1)C(C)C)C(=O)N1CCC[C@H](N1)C(=O)OCC(C)(C)C2` (atropisomer, axis not shown) [Example A720, (2R)-2-(((1-(4-(dimethylamino)-4-methylpent-2-ynoyl)azetidin-3-yl)oxy)methyl)-N-((6^3S,4S,Z)-1^1-ethyl-1^2-(2-((S)-1-methoxyethyl)pyridin-3-yl)-2^1,10,10-trimethyl-5,7-dioxo-6^1,6^2,6^3,6^4,6^5,6^6-hexahydro-1^1H,2^1H-8-oxa-1(5,3)-indola-6(1,3)-pyridazina-2(5,3)-triazolacycloundecaphane-4-yl)-3-methylbutanamide] yielded an EC50 [1] of under 5 µM and an IC50 [2] of 1 to 10 µM.

Compound `C=CC(=O)N1CCC(F)(C(=O)N(C)[C@H](C(=O)N[C@H]2C[C@H]3CN(CCO3)c3ccc4c(c3)c(c(-c3cccnc3[C@H](C)OC)n4CC)CC(C)(C)COC(=O)[C@@H]3CCCN(N3)C2=O)C(C)C)CC1` (atropisomer, axis not shown) [Example A722, 1-acryloyl-N-((2S)-1-(((6^3S,4S)-1^1-ethyl-1^2-(2-((S)-1-methoxyethyl)pyridin-3-yl)-10,10-dimethyl-5,7-dioxo-6^1,6^2,6^3,6^4,6^5,6^6-hexahydro-1^1H-8-oxa-2(4,2)-morpholina-1(5,3)-indola-6(1,3)-pyridazinacycloundecaphane-4-yl)amino)-3-methyl-1-oxobutan-2-yl)-4-fluoro-N-methylpiperidine-4-carboxamide] has an EC50 [1] of under 5 µM and an IC50 [2] of 1 to 10 µM.

`C=CC(=O)N1CC(OC[C@H](C(=O)N[C@H]2C[C@H]3CN(CCO3)c3ccc4c(c3)c(c(-c3cccnc3[C@H](C)OC)n4CC(F)(F)F)CC(C)(C)COC(=O)[C@@H]3CCCN(N3)C2=O)C(C)C)C1` (atropisomer, axis not shown) [Example A723] gave an EC50 [1] of under 5 µM and an IC50 [2] of over 10 µM.

Work on `CCn1c(-c2cccnc2[C@H](C)OC)c2c3cc(ccc31)-c1csc(n1)C[C@H](NC(=O)[C@H](C(C)C)N(C)C(=O)N(C)C1CN(C(=O)/C=C/[C@H]3CCCN3C)C1)C(=O)N1CCC[C@H](N1)C(=O)OCC(C)(C)C2` (atropisomer, axis not shown) [Example A729] yielded an EC50 [1] of under 5 µM and an IC50 [2] of 0.1 to 1 µM.

With `CCn1c(-c2cccnc2[C@H](C)OC)c2c3cc(ccc31)-c1csc(n1)C[C@H](NC(=O)[C@H](C(C)C)N(C)C(=O)N(C)C1CN(C(=O)/C=C/[C@@H]3CCCN3C)C1)C(=O)N1CCC[C@H](N1)C(=O)OCC(C)(C)C2` (atropisomer, axis not shown) [Example A730] the EC50 [1] was under 5 µM and the IC50 [2] was 0.1 to 1 µM.

With `CC#CC(=O)N1CC(N(C)C(=O)N(C)[C@H](C(=O)N[C@H]2Cc3nc(cs3)-c3ccc4c(c3)c(c(-c3cccnc3[C@H](C)OC)n4CC)CC(C)(C)COC(=O)[C@@H]3CCCN(N3)C2=O)C(C)C)C1` (atropisomer, axis not shown) [Example A731] the EC50 [1] was under 5 µM and the IC50 [2] was 0.1 to 1 µM.

`C=C(F)C(=O)N1CC(N(C)C(=O)N(C)[C@H](C(=O)N[C@H]2Cc3nc(cs3)-c3ccc4c(c3)c(c(-c3cccnc3[C@H](C)OC)n4CC)CC(C)(C)COC(=O)[C@@H]3CCCN(N3)C2=O)C(C)C)C1` (atropisomer, axis not shown) [Example A732] was tested, and the EC50 [1] was under 5 µM and the IC50 [2] was 0.1 to 1 µM.
